B1: C-terminal 16-amino acid deletion mutant of Thermus thermophilus HB8 peptidyl-tRNA hydrolase (ΔC16 TtPth) (domain or fragment, UniProt Q5SHZ2 1-167, looked up)
chain: MFLVVGQGNPGERYARTRHNLGFMVLDRLGLSFRPRGEALVAEAEGGLFLKPLTYYNLTGRAVAPLARFYKIPPERILVVHDEMDLPLGRIRFKAGGSAAGNRGVLSIEEALGTRAFHRLRLGIGKPPDPSRGAEYVLSPFREEELPVVERVLEAAKEAVWCWVREG
notes: Peptidyl-tRNA hydrolase (Pth, Pth1 type) of Thermus thermophilus HB8, lacking the C-terminal 16 amino acid residues (the C-terminal α-helix); the construct ends with Arg165-Glu166-Gly167; The His-tag was removed with thrombin; also called TtPth⋅tripeptide; C-terminal α-helix (C-terminal 16 amino acid residues) deletion mutant; source: E. coli BL21(DE3), purified (Ni-chelating column, thrombin …)

How the values were obtained:
[1] = target: T1, TtPth (Thermus thermophilus peptidyl-tRNA hydrolase) (Thermus thermophilus, UniProt Q5SHZ2); assay: X-ray crystal structure (co-crystallisation), […] Å; format: binding; conditions: 40 mM AMP in reservoir, MES pH 5.8, 20 °C; active site cleft, acidic pocket, A76 mimic
T1 construct: gene pth; wild type, full length (183 residues inferred from deletion of C-terminal 16 leaving Gly167 as last residue); monomer; wild type for crystals expressed and purified as described previously

[2] = target: the molecule itself; assay: crystal structure; crystals of ΔC16 TtPth (13 mg/ml, with 20 mM 3′-(N-acetyl-L-alanyl)amino-3′-deoxyadenosine, which was not seen in the density); 0.5 M (NH4)2SO4, 0.1 M Tris-HCl pH 7.5, 30% PEG600, 10% glycerol, 20 °C; contact between crystallographically related molecules, 2.10 Å

T1 sequence (Q5SHZ2 whole entry): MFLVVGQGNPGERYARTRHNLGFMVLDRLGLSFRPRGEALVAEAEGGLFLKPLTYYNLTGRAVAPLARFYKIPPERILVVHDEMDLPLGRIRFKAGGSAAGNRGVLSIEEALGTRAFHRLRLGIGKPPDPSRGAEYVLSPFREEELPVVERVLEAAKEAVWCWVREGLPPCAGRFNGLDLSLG

Molecule | X-ray crystal structure (co-crystallisation), 1.60 Å [1] | binding result [2]
Nc1ncnc2c1ncn2[C@@H]1O[C@H](COP(=O)(O)O)[C@@H](O)[C@H]1O [adenosine 5′-monophosphate] | The structure of TtPth⋅AMP revealed that AMP is bound to an acidic pocket | 
B1 |  | binds
